From article PMC13286573, “Exploration of precision coregulator TR-FRET identifies diverse signatures for LXR ligands relevant to discovery of nonlipogenic ABCA1 inducers” (eLife, 2026)

Experiments:
obese mice on HFD = test system: obese mice on HFD; parameters: method as in Griffett et al., 2015; settings: ref Griffett et al., 2015; cited from earlier work
LXRβ = biological target: T1, LXRβ (Homo sapiens, UniProt P55055); settings: in the absence of agonist
T1 sequence (P55055 222-460 limits assumed): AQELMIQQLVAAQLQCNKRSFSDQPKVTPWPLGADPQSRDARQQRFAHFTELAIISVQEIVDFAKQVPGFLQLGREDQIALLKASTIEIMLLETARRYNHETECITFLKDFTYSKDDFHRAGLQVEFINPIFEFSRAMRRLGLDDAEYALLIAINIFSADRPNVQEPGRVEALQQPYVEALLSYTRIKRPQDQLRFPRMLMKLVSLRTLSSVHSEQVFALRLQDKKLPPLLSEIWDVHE

Compound: CCOC(=O)c1ccc(CN(Cc2ccc(-c3cccc(S(C)(=O)=O)c3)cc2)S(=O)(=O)c2c(C)cc(C)cc2C)o1 [SR9238]
- Plasma TG (obese mice on HFD): plasma TG was suppressed
- Coactivator recruitment to LXRβ (LXRβ): very weakly supported coactivator recruitment to LXRβ
